Measured values from publication PMC2579271 (Molecular cancer therapeutics, 2008).

How the values were obtained:
[1] = biological target: Jak2 (Jak2-WT) (Mus musculus, UniProt Q62120); assay: autophosphorylation; format: cell-based
[2] = biological target: Jak2-V617F (Mus musculus, UniProt Q62120, V617F); assay: autophosphorylation; format: cell-based
Sequence of Jak2-V617F (Q62120 whole entry V617F): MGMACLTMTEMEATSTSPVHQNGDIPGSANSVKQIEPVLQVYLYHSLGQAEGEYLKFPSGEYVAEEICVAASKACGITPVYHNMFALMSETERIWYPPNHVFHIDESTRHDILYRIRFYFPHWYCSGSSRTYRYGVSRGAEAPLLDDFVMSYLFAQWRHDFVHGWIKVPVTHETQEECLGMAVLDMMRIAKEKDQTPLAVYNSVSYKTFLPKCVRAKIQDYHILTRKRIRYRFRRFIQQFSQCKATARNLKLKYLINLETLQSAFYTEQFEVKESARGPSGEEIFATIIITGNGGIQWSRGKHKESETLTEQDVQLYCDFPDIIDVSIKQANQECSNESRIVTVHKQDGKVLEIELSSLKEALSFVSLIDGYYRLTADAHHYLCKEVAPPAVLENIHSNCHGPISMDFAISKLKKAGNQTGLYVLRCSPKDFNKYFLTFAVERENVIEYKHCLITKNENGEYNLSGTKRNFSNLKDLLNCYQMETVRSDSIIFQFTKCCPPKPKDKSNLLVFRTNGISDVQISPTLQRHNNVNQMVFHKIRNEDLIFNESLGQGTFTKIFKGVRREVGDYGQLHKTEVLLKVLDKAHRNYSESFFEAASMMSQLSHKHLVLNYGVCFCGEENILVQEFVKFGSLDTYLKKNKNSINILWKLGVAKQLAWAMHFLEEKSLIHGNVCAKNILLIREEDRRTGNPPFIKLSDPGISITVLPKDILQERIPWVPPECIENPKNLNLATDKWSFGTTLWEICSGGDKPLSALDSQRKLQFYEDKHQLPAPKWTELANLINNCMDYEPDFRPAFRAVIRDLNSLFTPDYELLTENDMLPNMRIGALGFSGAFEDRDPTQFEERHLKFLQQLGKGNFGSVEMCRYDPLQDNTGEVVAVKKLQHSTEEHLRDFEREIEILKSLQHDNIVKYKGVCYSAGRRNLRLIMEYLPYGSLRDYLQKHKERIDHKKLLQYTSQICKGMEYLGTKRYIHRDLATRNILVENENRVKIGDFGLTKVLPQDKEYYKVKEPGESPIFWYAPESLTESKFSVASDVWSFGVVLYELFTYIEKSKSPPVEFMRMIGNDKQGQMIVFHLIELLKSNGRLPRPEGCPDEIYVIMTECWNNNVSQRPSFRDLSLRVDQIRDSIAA

Sequence of Jak2 (Jak2-WT) (Q62120 whole entry): as the sequence (Q62120 whole entry V617F) above, with F617V counted along it

IC50 [1]: ~15 µM
IC50 [2]: ~28 µM
SMILES: CC(CCc1ccccn1)(CCc1ccccn1)C(=O)c1ccccc1 [Z3, 2-methyl-1-phenyl-4-pyridin-2-yl-2-(2-pyridin-2-ylethyl)butan-1-one]
